This note sets out measurements from patent publication US10844038B2, “1,2-dithiolane compounds useful in neuroprotection, autoimmune and cancer diseases and conditions” (SABILA BIOSCIENCES LLC, priority 2016, dated 2020).

One test addresses BRAF (Homo sapiens (Human), UniProt P15056). The experiment in a line: KINOMEscan competition binding assay (Kd). To be noted: read-out: Kd Values Against MAPK Pathway Kinases: BRAF.
A further test deals with ITK (Homo sapiens (Human), UniProt Q08881). The experiment in a line: Radioisotope filter binding assay. It is filed as biochemical. To be noted: read-out: IC50 Activity Levels Against Representative TEC Family Kinases: ITK. The method in brief:
(§1)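 Compound + kinase + substrate/cofactors, 20 min RT preincubation; 33P-ATP added to start, 2 h RT. Buffer: 20 mM Hepes pH 7.5, 10 mM MgCl2, 1 mM EGTA, 0.02% Brij35, 2 mM DTT, 0.1 mM Na3VO4, 1% DMSO. Spotted on P81 paper, washed, counted.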

The next test has as its target CSK (Homo sapiens (Human), UniProt P41240). The experiment in a line: Radioisotope filter binding assay. It is filed as biochemical. Conditions: read-out: IC50 Activity Levels Against SRC Family Kinases: CSK. The method in brief:
as §1

Another test deals with FRK (Homo sapiens (Human), UniProt P42685). The test is described as follows: Radioisotope filter binding assay. It is filed as biochemical. To be noted: read-out: IC50 Activity Levels Against FRK Family Kinases: FRK. In a few lines: as §1
Chain of FRK (P42685 whole entry): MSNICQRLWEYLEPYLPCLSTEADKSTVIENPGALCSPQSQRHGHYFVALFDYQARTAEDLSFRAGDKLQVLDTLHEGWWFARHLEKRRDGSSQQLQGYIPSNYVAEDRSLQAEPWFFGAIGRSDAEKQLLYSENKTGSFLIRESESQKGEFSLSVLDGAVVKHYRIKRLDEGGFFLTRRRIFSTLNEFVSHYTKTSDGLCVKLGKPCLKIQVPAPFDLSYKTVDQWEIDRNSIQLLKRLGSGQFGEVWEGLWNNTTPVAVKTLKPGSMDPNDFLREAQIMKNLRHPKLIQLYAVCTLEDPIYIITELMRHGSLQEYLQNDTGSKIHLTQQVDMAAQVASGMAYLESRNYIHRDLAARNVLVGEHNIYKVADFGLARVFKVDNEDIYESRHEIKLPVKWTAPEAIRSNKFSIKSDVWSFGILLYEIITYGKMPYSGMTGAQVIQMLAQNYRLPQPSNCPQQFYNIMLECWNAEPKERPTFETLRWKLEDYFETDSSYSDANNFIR
A further test concerns the target FYN (Homo sapiens (Human), UniProt P06241). The experiment in a line: Radiometric 33PanQinase assay (FlashPlate-based Protein Kinase Assay). In kind it is biochemical. To be noted: at app. ATP Km, read-out: IC50 Activity Levels Against FYN Kinase: FYN. The source says: 5. Radiometric ^33PanQinase^R Assay:
This assay referred to as FlashPlate-based Protein Kinase Assay uses recombinant protein kinase and ATP concentration corresponding to the apparent ATP-Km of the respective kinase. Testing of inhibitors is done at app. ATP Km.

The target in a further test is FGR (Homo sapiens (Human), UniProt P09769). The test is described as follows: Rabbit reticulocyte lysate assay (KinaseSeeker competition binding). To be noted: read-out: IC50 Activity Levels Against SRC Family Kinases: FGR. The procedure: (§2) 1. Rabbit Reticulocyte Lysate Assay Design:
(§3) KinaseSeeker is a homogeneous competition binding assay where the displacement of an active site dependent probe by an inhibitor is measured by a change in luminescence signal. Luminescence readout translates into a highly sensitive and robust assay with low background and minimal interference from test compounds.
(§4) 10 mM stock solutions of test compounds were serially diluted in DMSO to make assay stocks. Prior to initiating IC50 determinations, the test compounds were evaluated for false positive against split-luciferase.
(§5) Each test compound was screened in duplicate against target kinase at 7 different concentrations. For kinase assays, Cfluc-kinase was translated along with Fos-Nfluc using a cell-free system (rabbit reticulocyte lysate) at 30° C. for 90 min. 24 uL aliquot of this lysate containing either 1 uL of DMSO (for no-inhibitor control) or compound solution in DMSO was incubated for 30 minutes at room temperature followed by 1 hour in presence of a kinase specific probe. 80 uL of luciferin assay reagent was added to each solution and luminescence was immediately measured on a luminometer.
(§6) The % Inhibition and % Activity Remaining was calculated using the following equation: % Inhibition=[(ALUControl−ALUSample)/ALUControl]×100 % Activity Remaining=100−% Inhibition
(§7) The % Activity was plotted against compound concentration and the IC50 was determined for each compound using a 7-point curve (Jester, B. W.; et. al. J. Am. Chem. Soc. 2010, 132, 11727-11735. Jester, B. W., et. al. J. Med. Chem. 2012, 55, 1526-1537). Biological activity of representative compounds of the disclosure are described in Table 5.

The next test has as its target YES1 (Homo sapiens (Human), UniProt P07947). The test is described as above. Conditions: read-out: IC50 Activity Levels Against SRC Family Kinases: YES1. The protocol: as §2, §3, §4, §5, §6, §7
A further test addresses MEK2 (Homo sapiens (Human), UniProt P36507). The experiment in a line: KINOMEscan competition binding assay (Kd). To be noted: read-out: Kd Values Against MEK Kinases Isoforms: MEK2.
The target of a further test is BRAF (V600E) (Homo sapiens (Human), UniProt P15056, V600E). The test is described as follows: KINOMEscan competition binding assay (Kd). Conditions: read-out: Kd Values Against MAPK Pathway Kinases: BRAF (V600E).
Chain of BRAF (V600E) (P15056 whole entry V600E): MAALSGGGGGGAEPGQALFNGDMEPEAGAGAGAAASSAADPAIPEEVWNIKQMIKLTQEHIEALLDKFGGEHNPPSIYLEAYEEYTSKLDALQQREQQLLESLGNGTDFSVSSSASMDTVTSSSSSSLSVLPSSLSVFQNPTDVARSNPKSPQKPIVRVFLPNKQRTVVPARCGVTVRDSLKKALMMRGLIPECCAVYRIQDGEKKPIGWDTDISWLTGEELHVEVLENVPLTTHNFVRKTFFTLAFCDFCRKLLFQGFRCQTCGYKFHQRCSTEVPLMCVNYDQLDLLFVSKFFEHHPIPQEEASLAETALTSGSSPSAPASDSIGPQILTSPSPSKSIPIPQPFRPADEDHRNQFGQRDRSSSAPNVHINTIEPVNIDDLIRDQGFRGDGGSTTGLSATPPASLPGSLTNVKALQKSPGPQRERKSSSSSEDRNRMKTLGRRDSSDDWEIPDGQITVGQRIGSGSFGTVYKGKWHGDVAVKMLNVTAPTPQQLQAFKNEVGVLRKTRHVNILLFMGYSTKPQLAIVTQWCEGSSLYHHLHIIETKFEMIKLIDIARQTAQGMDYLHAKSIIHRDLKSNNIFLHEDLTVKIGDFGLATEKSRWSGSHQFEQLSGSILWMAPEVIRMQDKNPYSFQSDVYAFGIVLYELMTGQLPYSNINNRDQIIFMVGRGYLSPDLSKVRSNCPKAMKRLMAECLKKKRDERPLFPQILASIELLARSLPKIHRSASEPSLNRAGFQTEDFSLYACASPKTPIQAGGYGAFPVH
In a further test the target is ERK2 (Homo sapiens (Human), UniProt P28482). The experiment in a line: KINOMEscan competition binding assay (Kd). Conditions: read-out: Kd Values Against MAPK Pathway Kinases: ERK2.
Chain of ERK2 (P28482 whole entry): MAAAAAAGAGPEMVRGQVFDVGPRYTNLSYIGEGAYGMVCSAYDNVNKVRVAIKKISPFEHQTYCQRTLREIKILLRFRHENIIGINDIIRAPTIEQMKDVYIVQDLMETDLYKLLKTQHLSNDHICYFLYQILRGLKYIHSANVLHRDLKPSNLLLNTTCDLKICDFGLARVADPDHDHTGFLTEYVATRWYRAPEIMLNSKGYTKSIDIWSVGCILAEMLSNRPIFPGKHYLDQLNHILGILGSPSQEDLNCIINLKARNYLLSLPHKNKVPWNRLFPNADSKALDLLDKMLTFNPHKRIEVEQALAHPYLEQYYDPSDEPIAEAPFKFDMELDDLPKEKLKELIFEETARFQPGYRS
The target in the next test is AurA (Homo sapiens (Human), UniProt O14965). The test is described as follows: Radioisotope filter binding assay. It is filed as biochemical. Conditions: read-out: IC50 Activity Levels Against RTKs (c-Kit, RET, HER4) and AurA, CHK2 Kinases: AurA. The method in brief:
as §1

Chain of BRAF (P15056 whole entry): as the sequence (P15056 whole entry V600E) above, with E600V counted along it
Chain of FYN (P06241 whole entry): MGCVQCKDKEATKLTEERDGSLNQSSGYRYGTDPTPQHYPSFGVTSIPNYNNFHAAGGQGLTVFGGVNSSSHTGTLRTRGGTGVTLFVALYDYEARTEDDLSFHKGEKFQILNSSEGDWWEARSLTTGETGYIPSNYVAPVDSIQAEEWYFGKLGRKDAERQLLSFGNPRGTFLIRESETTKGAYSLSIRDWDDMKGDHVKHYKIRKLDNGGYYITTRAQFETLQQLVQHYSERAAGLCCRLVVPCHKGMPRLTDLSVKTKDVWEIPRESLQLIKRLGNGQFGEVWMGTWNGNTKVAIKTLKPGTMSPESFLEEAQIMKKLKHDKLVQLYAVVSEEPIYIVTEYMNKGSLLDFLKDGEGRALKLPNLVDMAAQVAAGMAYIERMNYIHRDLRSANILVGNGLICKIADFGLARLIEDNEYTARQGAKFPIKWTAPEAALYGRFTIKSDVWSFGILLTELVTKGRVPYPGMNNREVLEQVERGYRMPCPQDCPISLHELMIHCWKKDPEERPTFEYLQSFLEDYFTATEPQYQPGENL
Chain of FGR (P09769 whole entry): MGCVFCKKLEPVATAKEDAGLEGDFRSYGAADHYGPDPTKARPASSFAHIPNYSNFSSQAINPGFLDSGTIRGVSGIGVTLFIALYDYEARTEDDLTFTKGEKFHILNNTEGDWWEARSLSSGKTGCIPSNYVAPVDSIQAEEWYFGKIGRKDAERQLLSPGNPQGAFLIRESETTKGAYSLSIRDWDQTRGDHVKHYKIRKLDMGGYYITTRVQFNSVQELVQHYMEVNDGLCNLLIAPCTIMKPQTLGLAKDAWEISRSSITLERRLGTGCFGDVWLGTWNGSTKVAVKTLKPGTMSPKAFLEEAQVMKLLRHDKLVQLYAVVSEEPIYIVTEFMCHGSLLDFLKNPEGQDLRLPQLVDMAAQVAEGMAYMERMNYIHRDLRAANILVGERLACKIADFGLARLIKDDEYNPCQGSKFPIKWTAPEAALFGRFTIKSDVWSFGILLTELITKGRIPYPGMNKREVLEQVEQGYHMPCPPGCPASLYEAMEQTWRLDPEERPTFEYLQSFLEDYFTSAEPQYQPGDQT
Chain of YES1 (P07947 whole entry, canonical isoform): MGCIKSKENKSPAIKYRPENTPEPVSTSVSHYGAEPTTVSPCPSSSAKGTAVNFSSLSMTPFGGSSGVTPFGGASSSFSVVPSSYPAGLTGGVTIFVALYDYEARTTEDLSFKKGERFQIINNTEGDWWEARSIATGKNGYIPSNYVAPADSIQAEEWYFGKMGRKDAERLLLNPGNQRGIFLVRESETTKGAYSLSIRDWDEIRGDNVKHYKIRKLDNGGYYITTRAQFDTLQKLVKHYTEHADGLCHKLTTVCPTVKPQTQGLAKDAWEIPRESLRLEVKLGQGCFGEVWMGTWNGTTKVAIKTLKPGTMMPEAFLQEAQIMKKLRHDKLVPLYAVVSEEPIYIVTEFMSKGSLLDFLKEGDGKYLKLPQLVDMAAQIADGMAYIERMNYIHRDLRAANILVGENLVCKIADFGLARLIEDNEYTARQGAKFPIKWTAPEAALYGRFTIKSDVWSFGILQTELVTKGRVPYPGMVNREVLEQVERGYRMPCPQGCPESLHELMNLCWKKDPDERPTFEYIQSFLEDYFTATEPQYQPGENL
Chain of MEK2 (P36507 whole entry, canonical isoform): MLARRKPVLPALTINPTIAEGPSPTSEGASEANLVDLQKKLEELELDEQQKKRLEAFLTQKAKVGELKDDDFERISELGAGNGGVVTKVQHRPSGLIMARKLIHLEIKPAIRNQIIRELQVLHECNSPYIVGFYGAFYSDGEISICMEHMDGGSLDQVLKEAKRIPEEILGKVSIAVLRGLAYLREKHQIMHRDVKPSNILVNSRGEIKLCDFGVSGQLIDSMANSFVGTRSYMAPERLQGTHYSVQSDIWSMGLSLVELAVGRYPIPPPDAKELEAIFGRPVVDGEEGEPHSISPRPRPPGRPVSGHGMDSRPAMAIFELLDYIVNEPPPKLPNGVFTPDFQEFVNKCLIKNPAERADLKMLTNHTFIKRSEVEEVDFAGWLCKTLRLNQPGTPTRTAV
Chain of AurA (O14965 whole entry): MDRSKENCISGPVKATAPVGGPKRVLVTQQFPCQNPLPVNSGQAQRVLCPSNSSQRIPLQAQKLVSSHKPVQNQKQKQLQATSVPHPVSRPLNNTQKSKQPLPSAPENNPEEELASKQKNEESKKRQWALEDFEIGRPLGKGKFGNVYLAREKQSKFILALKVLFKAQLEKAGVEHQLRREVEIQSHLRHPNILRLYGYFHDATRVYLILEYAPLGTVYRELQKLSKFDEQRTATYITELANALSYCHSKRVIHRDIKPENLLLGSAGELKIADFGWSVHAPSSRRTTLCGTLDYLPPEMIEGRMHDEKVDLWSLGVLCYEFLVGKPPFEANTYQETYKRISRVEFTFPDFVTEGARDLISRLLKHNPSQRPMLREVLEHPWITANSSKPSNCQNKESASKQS
Chain of ITK (Q08881 whole entry): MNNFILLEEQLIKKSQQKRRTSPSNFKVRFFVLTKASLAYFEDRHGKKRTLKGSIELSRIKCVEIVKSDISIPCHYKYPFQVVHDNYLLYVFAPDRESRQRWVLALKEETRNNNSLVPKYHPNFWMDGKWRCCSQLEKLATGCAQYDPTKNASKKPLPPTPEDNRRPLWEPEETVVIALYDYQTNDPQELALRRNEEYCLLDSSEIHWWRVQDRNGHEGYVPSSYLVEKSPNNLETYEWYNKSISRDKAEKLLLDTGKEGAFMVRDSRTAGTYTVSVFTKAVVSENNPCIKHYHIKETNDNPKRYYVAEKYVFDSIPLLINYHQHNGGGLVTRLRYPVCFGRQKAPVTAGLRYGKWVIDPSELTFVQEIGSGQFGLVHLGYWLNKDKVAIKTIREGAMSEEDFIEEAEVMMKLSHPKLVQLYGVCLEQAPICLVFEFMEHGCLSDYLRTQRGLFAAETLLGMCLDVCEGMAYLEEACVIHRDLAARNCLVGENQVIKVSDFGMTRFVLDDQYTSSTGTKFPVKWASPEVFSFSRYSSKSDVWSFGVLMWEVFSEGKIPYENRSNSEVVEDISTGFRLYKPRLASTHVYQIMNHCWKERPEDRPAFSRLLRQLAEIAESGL

For the compound `Nc1ncnc2c1c(-c1ccc(Oc3ccccc3)cc1)nn2C[C@@H]1SSC[C@@H]1O` [46 A.], on BRAF, the Kd fell in the range of 1000 to 10000 nM.

For the compound `Nc1ncnc2c1c(-c1ccc(Oc3ccccc3)cc1)nn2C[C@H]1SSC[C@@H]1O` [43 B.], the IC50 was 1000 to 10000 nM on ITK; 5 to 99 nM on CSK; 5 to 99 nM on FRK; 5 to 99 nM at FYN; 100 to 999 nM on FGR; 100 to 999 nM on YES1.

Regarding `Nc1ncnc2c1c(-c1ccc(Oc3ccccc3)cc1)nn2C[C@H]1SSC[C@H]1O` [46 B.], the dissociation constant (Kd) was 100 to 999 nM on MEK2, 1000 to 10000 nM at BRAF, 1000 to 10000 nM at BRAF (V600E) and 1000 to 10000 nM at ERK2. The IC50 at AurA was in the range of 100 to 999 nM; on FYN it was 5 to 99 nM; on FGR, 100 to 999 nM; on YES1, 5 to 99 nM.
